# Measured values from patent publication US10064871B2, “Methods of treating skin disorders” (Biomimetix JV, LLC, priority 2014, dated 2018).
# Columns and labels:
# [1] = tested on: psoriatic involvement of the scalp; experiment: Topical treatment of psoriatic involvement of the scalp of one subject; type: in vivo, human
# Text: A second subject with psoriatic involvement of the scalp of moderate severity was topically treated with MnTnBuOE-2-PyP^5+0.1% in LIPODERM® cream base twice daily for 3 weeks.
# plaque-forming psoriasis = experiment: Topical treatment of plaque-forming psoriasis on the legs of one subject; type: in vivo, human
# Procedure: The therapeutic efficacy of MnTnBuOE-2-PyP^5+ when topically delivered was evaluated in a person with large areas of moderately severe plaque-forming psoriasis on upper and lower portions of both legs, with each involved area being approximately 10-20 cm in diameter. MnTnBuOE-2-PyP^5+ was formulated in LIPODERM® topical compounding cream base (available from the Professional Compounding Centers of America (PCCA)). at 0.01% and 0.1% concentrations producing a light brown cream which was applied b.i.d. to lesions on one extremity.
# [2] = 0.01% and 0.1% in LIPODERM cream base, topical b.i.d., within 5 days
substance,measurement,setting,value
Manganese ortho tetrakis(N-n-butoxyethylpyridinium-2-yl)porphyrin [MnTnBuOE-2-PyP^5+],return of the psoriatic reaction,"[1]; 30 days after treatment stopped, 0.1% in LIPODERM cream base twice daily for 3 weeks",No return of the psoriatic reaction was observed
same,psoriatic scalp reaction after treatment,"[1]; person, moderate severity, 0.1% in LIPODERM cream base, topical twice daily for 3 weeks",Complete resolution
same,time to marked improvement,"plaque-forming psoriasis; 0.01% and 0.1% in LIPODERM cream base, topical b.i.d.",≤ 5 days
same,area of remaining mild psoriatic reaction,plaque-forming psoriasis; [2],decrease in the area of remaining mild psoriatic reaction
same,clinical irritation,plaque-forming psoriasis; [2],marked decrease in clinical irritation
same,inflammation of lesions,plaque-forming psoriasis; [2],decreased inflammation
same,efficacy of 0.01% compared with 0.1% cream,plaque-forming psoriasis; lesions treated with 0.01% and 0.1% in LIPODERM cream base,Equivalent efficacy
same,clinical improvement of psoriatic lesions,"plaque-forming psoriasis; person, moderately severe plaque psoriasis of legs, 0.01% and 0.1% in LIPODERM cream base, topical b.i.d.",Marked improvement
